In US20070203079A1, “Methods of using small molecule compounds for neuroprotection” (priority 2005, published 2007):
Where a name gives a salt, the structure may show the parent alone. Marks after values point to notes of the source that are not given here.

Tests used:
Format in all cases: in vivo, C. elegans
[1] = test system: transgenic worms containing the transgene Pdat-1::GFP without any torsinA expression; assay: 6-OHDA dopaminergic neurodegeneration in worms without torsinA; settings: no torsinA expression
[2] = test system: transgenic worm line Pdat-1::CAT-2; assay: Neurodegeneration by overexpression of cat-2 (tyrosine hydroxylase)
Excerpt: Overexpression of cat-2, the worm homologue for tyrosine hydroxylase, results in increased intraneuronal dopamine production and a characteristic loss of dopaminergic neurons in 75% of transgenic worms as compared to wild type (Cao et al., J Neurosci, 25(1):3801-3812). Co-expression of worm or human torsin proteins reduces the loss of dopaminergic neurons to a slight degree although neuronal degeneration is still present. The purpose of these experiments was to determine the effect of small molecule compounds in the Prestwick library in another different C. elegans model of neurodegeneration.
Worms were cultured using the same methods described above. A transgenic worm line expressing Pdat-1::CAT-2 expresses a phenotype that results in visible neurodegeneration at all developmental stages in an integrated line, in which only approximately 55% of 7 day old animals maintained all four CEP neurons. […] Compound 166 is an example of one such compound.
To further examine the neuroprotective effect of meclofenamic acid and lidocaine, we used a transgenic line (Pdat-1::CAT-2) we previously described (Cao et al., J Neurosci, 2005, 25(1): 3801-3812). Overexpression of cat-2, the C. elegans homolog of the tyrosine hydroxylase (“TH”) gene, causes a high level of DA production and as a result, DA neuron degeneration is observed (Cao et al., J Neurosci, 2005, 25(1): 3801-3812). […] We also tested whether meclofenamic acid was able to suppress CAT-2-induced neurodegeneration. […] Therefore, meclofenamic acid can protect DA neurons from degeneration produced by overexpression of the dopamine precursor, tyrosine hydroxylase.

GFP::DAT-1 = assay: Pdat-1::GFP::DAT-1 expression within DA neurons; settings: for Neurons with cell body and dendritic/axonal GFP: water control 70%; for Neurons with cell body and dendritic/axonal GFP / Mean pixel intensity of cell bodies ± SEM (fluorescence intensity): HCl; for Mean pixel intensity of cell bodies ± SEM (fluorescence intensity): water control 1970 ± 80, compounds at 1.85, 1.49, 1.86 mM
[3] = test system: worms expressing Punc-54::Q82::GFP+Punc-54::torsinA (ΔE) with a mutant torsinA only; assay: Protein aggregate assay in worms with mutant torsinA only
Protocol: (§1) C elegans nematodes were grown at 20° C. on NGM plates as described by Brenner (Brenner, Genetics, 1974, 77: 71-94). Several transgenic C. elegans lines were used for primary screens of the Prestwick small molecule library. A transgenic worm line expressing Punc-54::Q82-GFP; with both wild type (“wt”) (Punc=54: :torsinA) or mutant (Punc-54::torsinA(ΔE)). Torsin-A expresses a phenotype that results in visible protein aggregation under fluorescent microscope. Transgenic worms were plated on drug plates and progeny were studied for a return to soluble protein. […]
(§2) The screening assays used to identify the compounds use protein aggregation readouts to determine the specificities of molecular action. […]
(§3) The methods for the aggregate analysis assay are described in Caldwell et al. (Hum Mol Genetics, 2003, 12(3): 307-319). […] MetaMorph Software (Universal Imaging Inc.) was used for pseudocoloration of images, image overlay, and aggregate size quantitation. For each worm line analyzed, average aggregate size was determined by capturing images of all aggregates in the posterior region of 30 L3-staged animals (for Q82::GFP aggregates) or all aggregates in 30 adult animals/day (for Q19::GFP analyses) at 1000× magnification. […]

[4] = test system: protein misfolding and aggregation in transgenic worms; assay: Preventative assay of protein aggregation (drug from hatching to L2 stage); settings: exposure from hatching to L2 stage; scored at L3 and young adult
Protocol: To see the preventative effects of the candidate drug compounds on protein misfolding and aggregation, five gravid adult worms were placed onto each drug plate and grown at 20° C. for approximately 3 days. 35-40 Fl worms at L2 stage were picked and transferred to a control plate with the same concentration of control solvent compared to the drug plate. Thirty worms at L3 stage were counted for aggregate number 8 hours later. Thirty young adults were analyzed 32 hours later.
(§4) To calculate the scaled effectiveness of special regimen of drugs on worms based on standardized decrease in protein aggregates. The following formula was used: (A−B)/(A−C)×100%, where
(§5) A=number of aggregates for worms growing on solvent control plates
(§6) B=number of aggregates for worms grown on the specific drug plate for the entire life of the worms
C=number of aggregates for worms that received pre-L2 exposure and were then removed to solvent control plates
(§7) If the regimen has no effect, the value would equal 0%. Conversely, if the regimen was as effective as raising the worms on the drug for their entire life, the value would equal 100%.

[5] = test system: protein misfolding and aggregation in transgenic worms; assay: Corrective assay of protein aggregation (drug from L2 stage onward); settings: drug exposure from L2 stage onward; scored at L3 and young adult
Protocol: To see the corrective effect of the candidate drug compounds on protein misfolding and aggregation, five gravid adult worms were placed onto a solvent control plate and grown at 20° C. for approximately 3 days. 35-40 Fl worms at L2 stage were picked and transferred to a drug plate. Thirty worms at L3 stage were counted for aggregate number 8 hours later. Thirty young adults were analyzed 32 hours later.
as §4, §5, §6
C=number of aggregates for worms that received exposure from L2 stage (until adulthood)
as §7

[6] = test system: Pdat-1::GFP+Pdat-1::α-synuclein+Pdat-1::torsinA worms; assay: α-synuclein toxicity assay, wt torsinA
Excerpt: (§8) We have previously shown that torsinA can prevent dopamine (“DA”) neuron degeneration resulting from overexpression of α-synuclein in the DA neurons of C. elegans, while torsinA (“ΔE”) has a reduced neuroprotection (Cao et al., J Neurosci, 2005, 25(1): 3801-3812). Specifically, only 26.1±5.3% of the worms expressing Pdat-1::GFP+Pdat-1::α-synuclein maintained all 4 wildtype CEP DA neurons as 4 day adults while the percentages of the worms expressing Pdat-1::GFP+Pdat-1::α-synuclein+Pdat-1::torsinA and Pdat-1::GFP+Pdat-1::α-synuclein+Pdat-1:: torsinA (ΔE) are 57.3±1.6% and 42.2±7.3%, respectively (Cao et al., J Neurosci, 2005, 25(1): 3801-3812) (FIG. 8).
(§9) All molecules are coded by Prestwick Library number. TorsinA-dependent compounds identified from the aggregation assay have torsinA-specific effects and, therefore, are likely to function in the same manner in the α-synuclein toxicity assay. All three α-synuclein transgenic lines were exposed to the five torsinA-dependent compounds to determine their torsinA-specificity (FIG. 9). As expected, none of these compounds had any effect in Pdat-1::GFP+Pdat-1::α-synuclein when torsinA expression is absent.

[7] = test system: Pdat-1::GFP+Pdat-1::α-synuclein+Pdat-1:: torsinA (ΔE) worms; assay: α-synuclein toxicity assay, mutant torsinA
Excerpt: as §8, §9

[8] = test system: transgenic worms containing the transgene Punc-54::Q82::GFP without any torsinA expression; assay: Protein aggregate assay in worms without torsinA expression
Protocol: as §1, §2, §3

[9] = test system: worms containing Pdat-1::GFP+Pdat-1::torsinA+Pdat-1::torsinA (ΔE) after 6-OHDA exposure; assay: 6-OHDA dopaminergic neurodegeneration in worms with wt and mutant torsinA; settings: wt and mutant torsinA co-expressed; 6-OHDA insult
Excerpt: Previous studies have established that the “CEP” and “ADE” mechanosensory neurons in C. elegans undergo readily discernable neuronal degeneration after treatment with the dopamine-selective neurotoxin 6-OHDA (Nass et al, 2002). The toxicity of 6-OHDA is mediated through the formation of reactive oxygen species by the generation of hydrogen peroxide and […] via a nonenzymatic auto-oxidation process (Kumar et al., 1995; Foley and Riederer, 2000). […] This degeneration can be monitored in living animals by coexpressing with green fluorescent protein and categorized into three temporally and morphologically distinct stages, including neuronal process blebbing, cell body rounding with process loss, and cell body loss. These characteristic changes reproducibly appear in this order within a few hours, recapitulating observations in MPTP-treated monkeys and in 6-OHDA-treated rats, in which damage to striatal terminals leads to retrograde changes and precedes that of SNpc cell bodies (Berger et al., 1991; Herkenham et al., 1991). The actions of torsin protein in 6-OHDA-mediated neurodegeneration has recently been shown (Cao et al., J Neurosci, 25(1):3801-3812). Animals were treated with various concentrations of 6-OHDA and neurodegeneration was followed over time, as worms develop and age, by co-expression of a dopamine GFP marker in these transparent animals.
C. elegans nematodes were grown at 25° C. on NGM plates as described by Brenner (Brenner, Genetics, 1974, 77: 71-94). Two transgenic C. elegans lines were used for primary screens of the Prestwick small molecule library. A transgenic worm line expressing Pdat-1::GFP; with both wild type (Pdat-1::torsinA) or mutant (Pdat-1:::torsinA(ΔE)). Torsin-A expresses a phenotype that results in visible neurodegeneration after treatment with 6-OHDA. Transgenic worms were plated on drug plates and progeny were studied for morphological changes in the 8 dopaminergic neurons present in C. elegans.
Drugs were administered to C. elegans according to a standard procedure (Rand and Johnson, Methods Cell Biol, 1995, 48: 187-204) by mixing the solubilized drug with the agar medium on which the worms are grown. This mode of administration allows the continuous exposure of worms to the drug.
Each drug was first dissolved in an appropriate solvent, followed by adding the drug solution into pre-autoclaved media, with the volume of drug solution already taken into account. All drugs were tested at 0.5 mg/ml initial concentration, a few of which were toxic to worms and then tested at 0.1 mg/ml or 0.025 mg/ml concentration. Each plate was seeded with 100 μl concentrated E. coli OP50 bacteria
Age-synchronized worms were obtained by treating gravid adults with 2% sodium hypochlorite and 0.5M NaOH to isolate embryos (Lewis Fleming, 1995). These embryos were grown for 30 h at 25° C. At the L3 stage, larvae were incubated with 10 mM (50 mM) 6-OHDA and 2 mM (or 10 mM) ascorbic acid for 1 h with gentle agitation every 10 minutes. (Nass et al., 2002). The worms were then washed and spread onto NGM plates seeded with bacteria (OP50) and scored at time points ranging from 2 to 72 h after 6-OHDA exposure.
Immediately after 6-OHDA treatment, worms containing the transgenes were selected under a fluorescence dissecting microscope, based on the presence of GFP, and transferred to a fresh NGM plate seeded with OP50. For each time point, 30-40 worms were applied to a 2% agarose pad and immobilized with 3 mM levamisole. Worms were examined under a Nikon Eclipse E800 epifluorescence microscope equipped with an Endow GFP filter cube (Chroma Technology, Rockingham, Vt.). For ease of analysis, only the four CEP DA neurons in the head of the worm were scored. […]

[10] = Pdat-1::GFP::DAT-1, listed as Lidocaine hydrochloride

## CCN(CC)CC(=O)Nc1c(C)cccc1C [Compound 50, lidocaine HCl]
[1]
  reduction of 6-OHDA-mediated neurodegeneration: reduced the 6-OHDA-mediated neurodegeneration
[2]; Pdat-1::CAT-2
  neuroprotective effect against CAT-2-induced neurodegeneration: −7.9%
GFP::DAT-1; Pdat-1::GFP::DAT-1, water control 0%
  Worms with no GFP: 0%
GFP::DAT-1; Pdat-1::GFP::DAT-1, water control 30%
  Neurons with cell body GFP only: 70%^e
GFP::DAT-1; Pdat-1::GFP::DAT-1
  Neurons with cell body and dendritic/axonal GFP: 30%
  Mean pixel intensity of cell bodies ± SEM (fluorescence intensity): 1612 A.U.
GFP::DAT-1; [10]
  Neurons with cell body and dendritic/axonal GFP: 30%^d
  Mean pixel intensity of cell bodies ± SEM (fluorescence intensity): 1612 ± 78 A.U.
GFP::DAT-1; result in words
  effect on GFP::DAT-1 level: can down-regulate the level of DAT-1 protein directly

## CN(C)C(=O)C(CCN1CCC(O)(c2ccc(Cl)cc2)CC1)(c1ccccc1)c1ccccc1 [Compound 144, Loperamide HCl]
[3]
  reduction of aggregation: reduced aggregation
[4]
  preventative effect on protein aggregation: seem to be beneficial
[5]
  corrective effect on protein aggregation: seem to be beneficial
[6]
  enhanced wild type DA neuron survival: failed to show any significant neuroprotection
[7]
  enhanced DA neuron survival: 39.5±1.4%

## NCc1ccc(S(N)(=O)=O)cc1 [Compound 166, Mafenide]
[8]
  reduction of protein aggregates: reduced the presence of protein aggregates
[9]
  neuroprotection of dopaminergic neurons against 6-OHDA: little to no neuroprotection
[2]; Pdat-1::CAT-2, result in words
  neuroprotective action on dopaminergic neurons overexpressing cat-2: demonstrated a reduction in the standardized decrease in dopaminergic neurodegeneration
